From PMC10095747, “Modulatory Effects of Atractylodin and β-Eudesmol on Human Cytochrome P450 Enzymes: Potential Drug-Drug Interactions” (Molecules, 2023)
Like-named read-outs stand apart in the source and are kept apart here.

Key:
mCYP3A11 = experiment: ex vivo mCYP3A11 protein expression in mouse liver microsomes (western blot); conditions: daily oral 100 mg/kg body weight
Excerpt: Eight-week-old male ICR (Imprinting Control Region) mice weighing 35–40 g were used to investigate the modulatory effects of atractylodin and β-eudesmol on mCYP1A2 and mCYP3A11. The study protocol was approved by the Ethics Committee for Animal Research at Thammasat University (protocol number 016/2020). All animals were obtained from Nomura Siam International Co., Ltd. (Bangkok, Thailand). The animals were acclimatized for one week before the experiments. A total of 36 mice were allocated to three groups (i) control group (3 mice), (ii) atractylodin-treated group, and (iii) β-eudesmol-treated group. For atractylodin and β-eudesmol-treated groups, animals were fed with 100 mg/kg body weight of each compound for 1, 7, 14, and 21 (3 mice for each dose). Experiments were performed under the guidelines for the care and use of laboratory animals in a controlled environment of 12 h dark/light cycle, temperature 22 ± 2 °C, and relative humidity 30–70% at the Thammasat University Animal Center. Animals were observed daily for changes in signs and symptoms by a veterinarian. Mice were allowed access to the food pellets and water ad libitum.
Mouse liver samples were cut into small pieces, and the liver microsomes were prepared as described previously. The concentrations of proteins in the microsomes were determined using Pierce™ BCA Protein Assay Kit. mCYP1A2 and mCYP3A11 activities were evaluated based on phenacetin O-deethylation and nifedipine oxidation activities, respectively. The incubation mixture of 500 µL consisted of microsomes, substrate ([…]), and NADPH. […] The final organic solvent concentration in the incubation mixture was not higher than 1%. Each experiment was repeated three times (duplicated each). Determination of the concentrations of metabolites of mCYP1A2 (paracetamol) and mCYP3A11 (dehydronifedipine) in the reaction was performed using HPLC Agilent 1260 Infinity II with mobile gradient phase between methanol and distilled water at an initial ratio of 20:80 (v:v) and UV detection (240 nm). Calibration curves for both CYP450 activities were created over a concentration range of 1–50 µM. Oxidized nifedipine concentrations were determined using HPLC as follows: UV detection at 235 nm with an isocratic mobile phase consisting of methanol and distilled water (70:30, v:v). […] In each analytical batch, quality control (QC) samples were run in duplicate at low, medium, and high concentrations. Acceptance criteria were four out of six QC analyses falling within 100 ± 15% of the nominal values.
The microsomal protein concentration for both mCYP1A2 and […] was 25 μg protein per lane. Proteins were denatured by combining equal volumes of liver microsomes with sample buffer (1:19 (v:v) of 2-mercaptoethanol and 2x Laemmle buffer) and heating at 100 °C for 5 min. Proteins were separated using 12% SDS-PAGE according to their size characteristics before being migrated to nitrocellulose blotting membranes.

rCYP1A2 = target: T1, rCYP1A2 (Homo sapiens, UniProt P05177); experiment: luminogenic P450-Glo CYP450 inhibition assay, rCYP1A2; conditions: three independent experiments
T1 sequence (P05177 1-516): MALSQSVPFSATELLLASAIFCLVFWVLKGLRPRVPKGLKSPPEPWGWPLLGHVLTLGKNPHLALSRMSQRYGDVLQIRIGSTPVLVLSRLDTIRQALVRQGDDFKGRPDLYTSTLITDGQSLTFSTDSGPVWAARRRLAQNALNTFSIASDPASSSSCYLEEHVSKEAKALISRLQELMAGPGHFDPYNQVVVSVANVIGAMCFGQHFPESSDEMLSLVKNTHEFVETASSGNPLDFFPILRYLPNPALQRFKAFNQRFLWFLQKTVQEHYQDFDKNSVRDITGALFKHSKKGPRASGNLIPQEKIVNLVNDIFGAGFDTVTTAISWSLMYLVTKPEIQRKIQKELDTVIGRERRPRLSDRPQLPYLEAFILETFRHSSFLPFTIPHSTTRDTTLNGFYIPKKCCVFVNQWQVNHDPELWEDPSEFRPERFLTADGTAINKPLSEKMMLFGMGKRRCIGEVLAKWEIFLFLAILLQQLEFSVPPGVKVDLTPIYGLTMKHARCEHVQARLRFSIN
Excerpt: (§1) The luminescent cytochrome P450 assay was used to determine CYP450-mediated (CYP1A2, 2C9, 2C19, 2D6, and 3A4) metabolism of atractylodin and β-eudesmol. The assay consisted of each recombinant human CYP450 (rCYP450), control membranes lacking P450 activity, a luminogenic CYP450 substrate (luciferin-ME substrate for rCYP1A2, luciferin-H substrate for rCYP2C9, luciferin-H EGE substrate for rCYP2C19, luciferin-ME EGE substrate for rCYP2D6, and luciferin-IPA substrate for rCYP3A4), KPO4 buffer, luciferin free water, NADPH regeneration system, and a luciferin detection reagent. The rCYP450 enzymes were generated from a baculovirus-infected insect cell expression system. The concentrations of the recombinant CYPs used were 0.5 (rCYP1A2 and rCYP2C9), 0.25 (rCYP2C19 and rCYP2D6) or 0.2 (rCYP3A4) pmol (0.5μL) per reaction. […] A luciferin product was produced after adding 25 µL of NADPH Regeneration System (solution A, solution B, and luciferin-free water) and incubated at 37 °C for 10 (rCYP1A2 and rCYP3A4), 20 (rCYP2C19 and rCYP2C9) or 30 (rCYP2D6) minutes. The reaction was stopped and converted to a luminescent signal after adding Luciferin Detection Reagent (50 µL) and incubated at 25 °C for 20 min. The luminescence signals obtained were determined using a Varioskan® Flash microplate reader (Waltham, MA, USA). The magnitude of luminescence in all of the samples represented CYP450 activity. […] All stock solutions were diluted with luciferin-free water until the final concentration of organic solvent was less than 0.25% (v/v) of the total reaction. The concentration range of atractylodin and β-eudesmol used were 2.74–686 µM and 2.25–562 µM, respectively. […] The concentration that inhibited the activity of each rCYP450 by 50% (IC50) was calculated using Calcusyn software (Cambridge, UK). Data are reported as the median (range) of the three independent experiments.

rCYP2C19 = rCYP2C19 (Homo sapiens, UniProt P33261); experiment: luminogenic P450-Glo CYP450 inhibition assay, rCYP2C19; conditions: three independent experiments
rCYP2C19, sequence (P33261 whole entry): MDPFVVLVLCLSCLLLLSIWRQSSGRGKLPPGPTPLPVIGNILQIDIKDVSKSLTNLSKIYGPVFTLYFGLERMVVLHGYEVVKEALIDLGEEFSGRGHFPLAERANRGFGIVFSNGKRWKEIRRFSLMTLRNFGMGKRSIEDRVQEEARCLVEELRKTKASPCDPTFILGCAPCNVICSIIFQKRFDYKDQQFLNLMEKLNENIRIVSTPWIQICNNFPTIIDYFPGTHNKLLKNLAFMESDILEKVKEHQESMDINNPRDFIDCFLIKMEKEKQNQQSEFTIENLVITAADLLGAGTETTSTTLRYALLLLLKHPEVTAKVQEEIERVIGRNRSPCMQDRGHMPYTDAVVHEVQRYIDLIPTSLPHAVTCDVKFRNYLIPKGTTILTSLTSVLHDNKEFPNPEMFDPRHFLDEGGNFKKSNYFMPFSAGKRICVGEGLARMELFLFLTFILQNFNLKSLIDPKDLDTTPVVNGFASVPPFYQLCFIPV
Excerpt: as §1

| Structure (SMILES) | Protein expression ratio of mCYP3A11 (mCYP3A11; 1 day, control 1.73) | Protein expression ratio of mCYP3A11 (mCYP3A11; 7 days, control 1.57, 100 mg/kg) | Protein expression ratio of mCYP3A11 (mCYP3A11; 7 days, control 1.57, listed as Atactylodin, 100 mg/kg) | Protein expression ratio of mCYP3A11 (mCYP3A11; 14 days, control 2.31, 100 mg/kg) | Protein expression ratio of mCYP3A11 (mCYP3A11; 14 days, control 2.31, listed as Atactylodin, 100 mg/kg) | Protein expression ratio of mCYP3A11 (mCYP3A11; 21 days, control 2.18, 100 mg/kg) | Protein expression ratio of mCYP3A11 (mCYP3A11; 21 days, control 2.18, listed as Atactylodin, 100 mg/kg) | Median IC50 (Range) rCYP1A2 (rCYP1A2; median (range)) | IC50 (rCYP1A2; read-out: Median IC50 (Range) rCYP1A2, median (range)) | Median IC50 (Range) rCYP2C19 (rCYP2C19; median (range)) | IC50 (rCYP2C19; read-out: Median IC50 (Range) rCYP2C19, median (range)) | Protein expression ratio of mCYP3A11 (mCYP3A11; 7 days, control 1.57) | Protein expression ratio of mCYP3A11 (mCYP3A11; 14 days, control 2.31, listed as β-eudesmol, 100 mg/kg) | Protein expression ratio of mCYP3A11 (mCYP3A11; 14 days, control 2.31, listed as β‐eudesmol, 100 mg/kg) | Protein expression ratio of mCYP3A11 (mCYP3A11; 21 days, control 2.18, listed as β-eudesmol, 100 mg/kg) | Protein expression ratio of mCYP3A11 (mCYP3A11; 21 days, control 2.18, listed as β‐eudesmol, 100 mg/kg) | IC50 (rCYP1A2; Median IC50 (Range) rCYP1A2, median (range)) | IC50 (rCYP2C19; Median IC50 (Range) rCYP2C19, median (range)) |
| --- | --- | --- | --- | --- | --- | --- | --- | --- | --- | --- | --- | --- | --- | --- | --- | --- | --- | --- |
| C/C=C/C#CC#C/C=C/c1ccco1 [Atractylodin] | 1.82 | significantly downregulated | 1.26 | significantly downregulated | 1.67 | significantly downregulated | 1.41 | 90.6 (83.8–102.3) µg/ml | 497 µM | >125 µg/mL | > 686 µM |  |  |  |  |  |  |  |
| C=C1CCC[C@]2(C)CC[C@@H](C(C)(C)O)C[C@@H]12 [β-Eudesmol] | 1.50 |  |  |  |  |  |  |  |  |  |  | 1.62 | significantly downregulated | 1.60 | significantly downregulated | 1.42 | > 562 µM | 173 µM |
